Measurements published in patent US4474967A, “8-Deutero and 8-tritio-substituted derivatives of D-4S-6-fluoro-spiro-[chroman-4,4'-imidazolidine]-2',5'-dione” (Pfizer Inc., priority 1983, dated 1984).

Test system: aldose reductase
Test: Inhibition of aldose reductase enzyme activity (S. Hayman et al., as modified by K. Sestanj et al.)
Type: biochemical
Conditions: partially purified aldose reductase enzyme from calf lens
Experimental: The following asymmetric spiro-hydantoin compounds of Examples 1 and 2, respectively, were tested at a concentration level of 10^-6 M for their ability to reduce or inhibit aldose reductase enzyme activity via the procedure of S. Hayman et al., as described in the Journal of Biological Chemistry, Vol. 240, p. 877(1965) and as modified by K. Sestanj et al. in U.S. Pat. No. 3,821,383. In each case, the substrate employed was partially purified aldose reductase enzyme obtained from calf lens.

Structure (SMILES)	% Inhibition at 10^-6 M
O=C1NC(=O)[C@@]2(CCOc3c(F)cc(F)cc32)N1 [Product of Example 1, 4S-6,8-difluoro-spiro-[chroman-4,4'-imidazolidine]-2',5'-dione]	74%
O=C1NC(=O)[C@@]2(CCOc3c(Cl)cc(F)cc32)N1 [Product of Example 2, 4S-6-fluoro-8-chloro-spiro-[chroman-4,4'-imidazolidine]-2',5'-dione]	64%
